In ChEMBL document CHEMBL4043296 (J Med Chem, 2018):
≈ marks a conversion by molar mass, not a printed value.

Tests used:
[1] = Fraction unbound in mouse plasma at 0.5 uM by equilibrium dialysis method; format: ADME, cell-free
D(4) dopamine receptor [2] = biological target: T1, D(4) dopamine receptor (Homo sapiens, UniProt P21917); assay: Displacement of [3H]N-methylspiperone from human dopamine D4 receptor expressed in HEK293 cell membranes after 1 hr by scintillation counting method
T1 sequence (P21917 whole entry): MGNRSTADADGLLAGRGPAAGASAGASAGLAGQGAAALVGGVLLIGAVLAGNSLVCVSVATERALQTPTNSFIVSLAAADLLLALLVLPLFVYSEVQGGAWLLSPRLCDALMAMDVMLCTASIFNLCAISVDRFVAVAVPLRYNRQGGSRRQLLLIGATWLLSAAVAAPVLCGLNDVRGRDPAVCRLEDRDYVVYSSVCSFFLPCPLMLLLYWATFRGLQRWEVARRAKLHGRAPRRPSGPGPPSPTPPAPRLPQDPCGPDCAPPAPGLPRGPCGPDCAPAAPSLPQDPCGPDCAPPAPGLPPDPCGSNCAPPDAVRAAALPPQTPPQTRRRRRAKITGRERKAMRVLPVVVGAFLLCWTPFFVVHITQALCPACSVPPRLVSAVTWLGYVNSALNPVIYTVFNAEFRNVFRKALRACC

Homo sapiens = species on record: Homo sapiens; assay: Selectivity ratio of Ki for human dopamine D2 receptor to Ki for human dopamine D4 receptor
[3] = biological target: Muscarinic acetylcholine receptor M3 (Homo sapiens, UniProt P20309); assay: Displacement of [3H]NMS from human muscarinic M3 receptor expressed in CHO cell membranes after 2 hrs by liquid scintillation counting method
Muscarinic acetylcholine receptor M3, sequence (P20309 whole entry): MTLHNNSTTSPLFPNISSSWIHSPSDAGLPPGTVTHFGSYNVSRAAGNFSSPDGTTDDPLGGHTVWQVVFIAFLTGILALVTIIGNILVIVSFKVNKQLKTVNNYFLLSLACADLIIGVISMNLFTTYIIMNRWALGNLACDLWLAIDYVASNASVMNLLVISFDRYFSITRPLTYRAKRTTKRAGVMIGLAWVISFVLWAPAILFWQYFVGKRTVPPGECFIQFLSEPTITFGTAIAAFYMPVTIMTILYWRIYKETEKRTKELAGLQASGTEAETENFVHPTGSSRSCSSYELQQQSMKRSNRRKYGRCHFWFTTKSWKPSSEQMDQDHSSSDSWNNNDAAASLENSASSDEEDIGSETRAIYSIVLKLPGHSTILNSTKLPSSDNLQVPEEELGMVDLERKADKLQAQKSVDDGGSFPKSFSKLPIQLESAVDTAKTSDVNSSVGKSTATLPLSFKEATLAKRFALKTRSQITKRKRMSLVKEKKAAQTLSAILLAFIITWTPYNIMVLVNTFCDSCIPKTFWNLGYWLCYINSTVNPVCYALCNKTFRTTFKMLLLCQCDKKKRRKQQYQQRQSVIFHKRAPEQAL

[4] = biological target: T2, Alpha-1A adrenergic receptor (Homo sapiens, UniProt P35348); assay: Displacement of [3H]prazosin from human recombinant alpha-1A adrenergic receptor expressed in CHO cell membranes after 30 mins by liquid scintillation counting method
T2 sequence (P35348 whole entry): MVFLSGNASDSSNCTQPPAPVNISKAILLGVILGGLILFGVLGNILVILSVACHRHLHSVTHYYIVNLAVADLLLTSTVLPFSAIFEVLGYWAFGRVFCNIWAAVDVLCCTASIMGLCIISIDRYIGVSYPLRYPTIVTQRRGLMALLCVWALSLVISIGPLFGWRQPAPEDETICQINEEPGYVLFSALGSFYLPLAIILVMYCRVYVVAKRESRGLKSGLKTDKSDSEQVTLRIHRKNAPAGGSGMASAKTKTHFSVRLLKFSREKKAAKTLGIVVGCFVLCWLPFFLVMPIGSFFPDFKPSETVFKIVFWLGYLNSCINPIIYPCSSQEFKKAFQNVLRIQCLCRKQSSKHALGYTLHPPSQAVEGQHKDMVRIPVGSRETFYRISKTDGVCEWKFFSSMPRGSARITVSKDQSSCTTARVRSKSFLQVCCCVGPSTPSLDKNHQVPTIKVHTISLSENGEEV

[5] = biological target: T3, Alpha-1D adrenergic receptor (Homo sapiens, UniProt P25100); assay: Displacement of [3H]prazosin from human recombinant alpha-1D adrenergic receptor expressed in CHO cell membranes after 30 mins by liquid scintillation counting method
T3 sequence (P25100 whole entry): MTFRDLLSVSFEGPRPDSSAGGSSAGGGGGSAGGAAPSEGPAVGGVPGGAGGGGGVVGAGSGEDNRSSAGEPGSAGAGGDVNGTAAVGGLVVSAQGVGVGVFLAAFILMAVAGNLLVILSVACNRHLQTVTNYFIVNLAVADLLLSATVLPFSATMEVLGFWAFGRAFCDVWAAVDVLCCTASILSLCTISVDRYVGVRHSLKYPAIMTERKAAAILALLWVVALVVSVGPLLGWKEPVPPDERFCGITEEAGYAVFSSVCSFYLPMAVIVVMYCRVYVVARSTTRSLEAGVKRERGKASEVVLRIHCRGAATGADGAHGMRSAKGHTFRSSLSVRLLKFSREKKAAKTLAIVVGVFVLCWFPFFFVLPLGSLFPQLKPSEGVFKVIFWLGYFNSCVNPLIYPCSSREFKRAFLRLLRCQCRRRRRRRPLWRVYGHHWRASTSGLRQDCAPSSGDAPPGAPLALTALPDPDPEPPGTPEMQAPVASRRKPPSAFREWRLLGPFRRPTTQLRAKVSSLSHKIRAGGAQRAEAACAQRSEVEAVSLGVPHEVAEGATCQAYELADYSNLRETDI

[6] = biological target: Beta-1 adrenergic receptor (Homo sapiens, UniProt P08588); assay: Displacement of [3H]CGP12177 from human recombinant beta1 adrenergic receptor expressed in HEK293 cell membranes after 90 mins by beta counting method
Beta-1 adrenergic receptor, sequence (P08588 whole entry, the tested form may be a part): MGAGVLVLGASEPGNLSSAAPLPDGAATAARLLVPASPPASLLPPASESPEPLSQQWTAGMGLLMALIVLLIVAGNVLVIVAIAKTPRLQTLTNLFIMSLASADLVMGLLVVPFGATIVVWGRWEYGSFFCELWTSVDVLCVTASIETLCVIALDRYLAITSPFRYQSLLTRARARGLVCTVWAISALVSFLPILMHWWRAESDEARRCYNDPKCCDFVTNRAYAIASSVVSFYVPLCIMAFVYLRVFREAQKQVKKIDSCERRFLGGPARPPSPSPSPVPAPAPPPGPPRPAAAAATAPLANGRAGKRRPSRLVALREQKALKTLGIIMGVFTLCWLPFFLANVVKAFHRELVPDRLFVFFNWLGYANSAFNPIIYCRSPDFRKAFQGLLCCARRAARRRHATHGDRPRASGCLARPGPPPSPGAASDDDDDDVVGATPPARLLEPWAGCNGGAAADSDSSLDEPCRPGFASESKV

D(4) dopamine receptor [7] = biological target: T1, D(4) dopamine receptor; assay: Antagonist activity at human SP/Myc epitope-tagged dopamine D4 receptor expressed in HEK293T cells assessed as inhibition of dopamine-induced RLuc8-fused Galphai1 activation preincubated for 15 mins followed by dopamine induction measured after 2 mins by BRET assay; format: cell-based, HEK-293T
D(4) dopamine receptor [8] = biological target: T1, D(4) dopamine receptor; assay: Antagonist activity at human SP/Myc epitope-tagged dopamine D4 receptor expressed in HEK293T cells assessed as inhibition of dopamine-induced mVenus-fused beta-arrestin2 recruitment preincubated for 15 mins followed by dopamine induction measured after 2 mins by BRET assay; format: cell-based, HEK-293T
[9] = biological target: T4, Muscarinic acetylcholine receptor M4 (Homo sapiens) (UniProt P08173); assay: Agonist activity at human SP/Myc epitope-tagged muscarinic M4 receptor expressed in HEK293T cells assessed as RLuc8-fused Galphaq activation after 2 mins by BRET assay relative to carbachol; format: cell-based; conditions: HEK-293T
T4 sequence (whole entry): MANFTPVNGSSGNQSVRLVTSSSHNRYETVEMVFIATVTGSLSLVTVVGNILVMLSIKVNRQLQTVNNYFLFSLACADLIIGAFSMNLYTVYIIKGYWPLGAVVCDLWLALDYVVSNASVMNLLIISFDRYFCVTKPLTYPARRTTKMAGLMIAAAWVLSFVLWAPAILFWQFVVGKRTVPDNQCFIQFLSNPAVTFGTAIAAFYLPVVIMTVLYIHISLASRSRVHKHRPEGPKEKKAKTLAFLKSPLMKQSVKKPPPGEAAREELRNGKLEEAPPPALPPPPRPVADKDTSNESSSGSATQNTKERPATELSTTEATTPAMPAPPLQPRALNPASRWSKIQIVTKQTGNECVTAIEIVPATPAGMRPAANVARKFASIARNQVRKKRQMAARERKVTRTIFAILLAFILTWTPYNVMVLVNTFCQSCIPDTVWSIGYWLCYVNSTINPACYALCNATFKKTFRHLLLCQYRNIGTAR

[10] = biological target: T4, Muscarinic acetylcholine receptor M4 (Homo sapiens); assay: (§1) Antagonist activity at human SP/Myc epitope-tagged muscarinic M4 receptor expressed in HEK293T cells assessed as inhibition of carbachol-induced mVenus-fused beta-arrestin2 recruitment preincubated for 15 mins followed by carbachol induction measured after 2 mins by BRET assay; format: cell-based; conditions: HEK-293T
[11] = biological target: T5, Muscarinic acetylcholine receptor M4 (Homo sapiens, UniProt P08173); assay: as §1; format: cell-based, HEK-293T
T5 sequence (P08173 whole entry): T4 sequence (whole entry)

[12] = Kinetic solubility of the compound at pH 7.4 after 24 hrs by UPLC/UV/TOF-MS method; format: physicochemical; conditions: buffer, read-out: Kinetic_solubility
[13] = Fraction unbound in mouse brain at 5 uM by equilibrium dialysis method; format: ADME, tissue-based

Structure (SMILES)	fraction unbound at 0.5 µM [1]	Ki (D(4) dopamine receptor [2]) [nM]	Ratio Ki (Homo sapiens)	Ki [3] [nM]	Ki [4] [nM]	Ki [5] [nM]	Ki [6] [nM]	IC50 (D(4) dopamine receptor [7]) [nM]	IC50 (D(4) dopamine receptor [8]) [nM]	Emax [9] [%]	Imax [10] [%]	IC50 [11] [nM]	solubility kinetic at 24 h [12] [µM]	fraction unbound at 5 µM [13]
O=C1CCc2ccccc2N1CCCN1CCN(c2ccccc2)CC1	0.097	2.88	380	17800	53.7	91.2	32400	9.77	0.724	17	74	12000	520 (≈ 182 µg/mL)	0.086
O=C1CCc2ccccc2N1CCCN1CCC(Cc2ccccc2)CC1	0.1	1.26	724	3020	257	302	10200	170	575	24	72	1230	477 (≈ 173 µg/mL)	0.051
